Laboratory results: patent US20240325420A1, “COMPOSITION INCLUDING PAEONIFLORIN FOR PREVENTION OR TREATMENT OF CACHEXIA AND MUSCLE LOSS” (CHUNG ANG UNIVERSITY INDUSTRY ACADEMIC COOPERATION …, priority 2021, published 2024)

Experiments:
Type in all cases: in vivo
[1] = system: muscle-specific ubiquitin E3 ligases (MuRF1 and MAFbx); experiment: Protein levels of MuRF1 and MAFbx in gastrocnemius muscle by Western blotting; conditions: C57BL/6 mice, cisplatin-treated, Pae 10 and Pae 20 vs vehicle
Method: (§1) In addition, cisplatin-treated mice orally administered the same volume of distilled water were designated as the vehicle group. After completion of drug treatment, the mice of each group were euthanized with 10 mg/kg alfaxalone (Jurox, Rutherford, Australia). Blood was collected in test tubes containing EDTA, and centrifuged, and plasma was separated therefrom. Gastrocnemius and quadriceps skeletal muscles were dissected and weighed. The skeletal muscles were rapidly frozen in liquid nitrogen to be used for RT-qPCR, Western blotting, and ELISA.
Proteins were extracted from skeletal muscle using NucleoSpin kits (Macherey-Nagel, Duren, Germany) and quantified using the BCA Protein Assay Kit (Pierce, Rockford, IL, USA). Anti-β-actin antibody was used to quantify protein loading. For myosin protein (MyHC, myosin heavy chain), myogenic factor (MyoD), and NF-κB signaling system (p-IKK, IKK, p-IκB, and IκB), protein levels in the gastrocnemius muscle were measured by Western blotting. Band intensities were quantified using ImageJ software (NIH, Bethesda, MD, USA).
In order to measure the mRNA and protein levels of major factors involved in muscle loss, muscle contraction, and muscle differentiation, the mRNA and protein levels in the skeletal muscle tissues from C57BL/6 mice were measured by real-time PCR and Western blotting.

[2] = system: TNF-α, IL-6 and IL-1β; experiment: Protein levels of pro-inflammatory cytokines in gastrocnemius muscle, Balb/c mice; conditions: cisplatin-treated
Method: as §1
(§2) The levels of TNF-α and interleukin (IL)-6 were measured using respective mouse ELISA kits (Invitrogen, Waltham, MA, USA). IL-1β and GDF-15 levels were measured using respective Quantikine ELISA kits (R&D Systems, Minneapolis, MN, USA).

[3] = system: NF-κB signaling (p-IKK, p-IκB, IκB, NF-κB p65); experiment: NF-κB signaling in skeletal muscle by Western blotting; conditions: gastrocnemius muscle, C57BL/6 mice, cisplatin-treated, Pae 10 and Pae 20
Method: Proteins were extracted from skeletal muscle using NucleoSpin kits (Macherey-Nagel, Duren, Germany) and quantified using the BCA Protein Assay Kit (Pierce, Rockford, IL, USA). Anti-β-actin antibody was used to quantify protein loading. For myosin protein (MyHC, myosin heavy chain), myogenic factor (MyoD), and NF-κB signaling system (p-IKK, IKK, p-IκB, and IκB), protein levels in the gastrocnemius muscle were measured by Western blotting. Band intensities were quantified using ImageJ software (NIH, Bethesda, MD, USA). Nuclear and cytoplasmic lysates were prepared from the skeletal muscle using a nuclear extraction kit (Active Motif, Carlsbad, CA, USA). The protein concentration of both lysates was measured using the BCA Protein Assay Kit (Pierce). Anti-NF-κB p65 was used as the primary antibody, and 10 μg of protein per lysate was analyzed by Western blotting. TBP (TATA box-binding protein) and β-actin were as controls for the nuclear and cytosolic lysates, respectively. The target DNA binding activity of NF-κB was measured using the TransAM NF-κB ELISA kit (Active Motif, USA). NF-κB signaling was analyzed by Western blotting of the total extract and the cytosolic and nuclear fraction from the skeletal muscle of C57BL/6 mice.

[4] = system: NF-κB; experiment: Target DNA binding activity of NF-κB in skeletal muscle (TransAM NF-κB ELISA); conditions: gastrocnemius muscle; C57BL/6 mice; cisplatin-treated; Pae 10 and Pae 20; FIG. 12C
Method: Nuclear and cytoplasmic lysates were prepared from the skeletal muscle using a nuclear extraction kit (Active Motif, Carlsbad, CA, USA). The protein concentration of both lysates was measured using the BCA Protein Assay Kit (Pierce). Anti-NF-κB p65 was used as the primary antibody, and 10 μg of protein per lysate was analyzed by Western blotting. TBP (TATA box-binding protein) and β-actin were as controls for the nuclear and cytosolic lysates, respectively. The target DNA binding activity of NF-κB was measured using the TransAM NF-κB ELISA kit (Active Motif, USA).

[5] = system: TNF-α; experiment: Plasma TNF-α by ELISA in mice with cisplatin-induced cachexia; conditions: C57B/6 mice; cisplatin plus paeoniflorin-treated group vs cisplatin-treated group; FIG. 13A
Method: as §1, §2
The protein concentration of the pro-inflammatory cytokine TNF-α in the plasma of mice was analyzed by ELISA.

[6] = system: C57BL/6 mice with Lewis lung carcinoma-induced cachexia; experiment: Muscle strength and endurance in C57BL/6 mice with Lewis lung carcinoma-induced cachexia
Method: As the experimental animals, 4-week-old female C57BL/6 mice and Balb/c mice weighing 18 g to 20 g were purchased from Raon Bio (Yongin, Korea), acclimatized in the laboratory animal facility for one week, and then used in the experiment. During the experiment period, the animals were provided with solid feed and water ad libitum, and the breeding room was maintained at a temperature of 20° C. to 24° C. and a relative humidity of 55% to 65% with a 12-hr light/12-hr dark cycle.
Mice were divided into a control group and a cachexia-induced group, and the cachexia-induced group was subdivided into a tumor cell-injected group, a tumor cell-injected and existing drug (MA, megestrol acetate)-administered group, and tumor cell-injected and paeoniflorin (Pae)-administered groups. Each group consisted of 10 animals.
Each mouse of the control group was injected subcutaneously with 100 μL of saline solution. For the cachexia-induced groups, Lewis lung carcinoma cells (C57BL/6 mice) or colon-26 carcinoma cells (Balb/c mice) were injected subcutaneously into the flank area of each mouse at a dose of 10^6 cells/100 μL/mouse. […] After completion of 9 days of administration, the muscle strength of the mice was measured using a grip strength test device (Bioseb, USA), and the endurance of the mice was measured using a treadmill device (Columbus Instrument, USA).

target DNA binding activity of NF-κB [4]: decreased
SMILES: C[C@@]12C[C@@]3(O)O[C@@H](O1)[C@]1(COC(=O)c4ccccc4)[C@H]3C[C@@]12O[C@@H]1O[C@H](CO)[C@@H](O)[C@H](O)[C@H]1O [paeoniflorin]
MuRF1 protein level ([1]; FIG. 6A): decreased | MAFbx protein level ([1]; FIG. 6B): decreased | TNF-α protein level in the gastrocnemius muscle ([2]; FIG. 9A): similarly obtained | IL-6 protein level in the gastrocnemius muscle ([2]; FIG. 9B): similarly obtained | IL-1β protein level in the gastrocnemius muscle ([2]; FIG. 9C): similarly obtained | level of p-IKK (phospho-IKK) ([3]; FIG. 10A): reduced again | level of p-IκB (phospho-IκB) ([3]; FIG. 10B): reduced again | level of IκB ([3]; FIG. 11): increased | cytosolic level of NF-κB ([3]; FIG. 12A): increased | nuclear level of NF-κB ([3]; FIG. 12B): decreased | plasma concentration of TNF-α [5]: significantly decreased | muscle strength ([6]; C57BL/6 mice, Lewis lung carcinoma-injected, paeoniflorin orally for 9 days, FIG. 16A): significantly increased | endurance ([6]; C57BL/6 mice, Lewis lung carcinoma-injected, paeoniflorin orally for 9 days, FIG. 16B): significantly increased | effect on muscle function compared with megestrol acetate (MA) ([6]; Lewis lung carcinoma C57BL/6 mice, paeoniflorin 10 to 20 mg/kg/day vs megestrol acetate 160 mg/kg/day): better effect
